Data taken from ChEMBL document CHEMBL1155491, “Acylurea connected straight chain hydroxamates as novel histone deacetylase inhibitors: Synthesis, SAR, and in vivo antitumor activity” (Bioorg Med Chem Lett, 2010).
Converted amounts (≈) assume the structure as drawn. The source made the active and inactive calls. The calls are words filed in the database; no cut-off is given here.

Legend:
[1] = Solubility at pH 7; assay type: physicochemical; conditions: buffer
[2] = Half life in mouse liver microsome; assay type: ADME; conditions: liver microsomes
HCT-116 [3] = test: Antitumor activity against human HCT116 cells xenografted in BALB/c mouse at 100 mg/kg, po after 21 days; assay type: functional; conditions: HCT-116, 504 h, read-out: TGI
[4] = Cmax in mouse plasma at 50 mg/kg, po; assay type: ADME, organism-based; set-up: dose 50 mg/kg, route oral
Histone deacetylase 1 [5] = target: T1, Histone deacetylase 1 (Homo sapiens, UniProt Q13547); test: Inhibition of HDAC1 in human COLO205 cells assessed as induction of histone H3 acetylation at 10 uM by Western-immuno blotting; assay type: cell-based; conditions: COLO 205
T1 sequence (Q13547 whole entry): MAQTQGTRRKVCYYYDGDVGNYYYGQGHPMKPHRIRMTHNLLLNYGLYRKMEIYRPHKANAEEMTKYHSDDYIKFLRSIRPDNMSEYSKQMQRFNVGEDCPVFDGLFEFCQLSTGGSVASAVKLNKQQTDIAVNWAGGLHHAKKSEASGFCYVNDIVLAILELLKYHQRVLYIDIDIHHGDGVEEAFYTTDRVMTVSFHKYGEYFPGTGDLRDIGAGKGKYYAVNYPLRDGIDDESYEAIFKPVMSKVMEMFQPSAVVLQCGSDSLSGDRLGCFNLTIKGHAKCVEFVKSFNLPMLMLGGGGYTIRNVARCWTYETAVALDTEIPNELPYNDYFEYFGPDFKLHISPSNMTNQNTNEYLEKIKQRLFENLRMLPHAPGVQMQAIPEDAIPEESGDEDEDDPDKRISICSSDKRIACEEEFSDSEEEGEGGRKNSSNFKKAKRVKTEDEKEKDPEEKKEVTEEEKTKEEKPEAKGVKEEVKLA

Histone deacetylase 8 = target: T2, Histone deacetylase 8 (Homo sapiens, UniProt Q9BY41); test: Inhibition of HDAC8
T2 sequence (Q9BY41 whole entry): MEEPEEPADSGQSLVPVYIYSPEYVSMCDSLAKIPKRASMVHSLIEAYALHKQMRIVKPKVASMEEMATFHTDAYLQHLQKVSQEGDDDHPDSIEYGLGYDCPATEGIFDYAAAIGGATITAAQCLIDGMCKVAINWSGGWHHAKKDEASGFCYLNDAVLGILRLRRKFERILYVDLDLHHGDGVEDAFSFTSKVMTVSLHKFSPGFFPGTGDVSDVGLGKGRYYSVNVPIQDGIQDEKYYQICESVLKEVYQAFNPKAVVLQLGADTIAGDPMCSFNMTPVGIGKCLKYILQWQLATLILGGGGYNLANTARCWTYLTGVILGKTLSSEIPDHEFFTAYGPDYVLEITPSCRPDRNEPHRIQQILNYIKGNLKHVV

HCT-116 [6] = test: Antiproliferative activity against human HCT116 cells; assay type: functional, cell-based
[7] = Elimination half life in mouse at 10 mg/kg, iv; assay type: ADME, organism-based; set-up: dose 10 mg/kg, route intravenous; conditions: in vivo, read-out: beta t1/2 (converted)
Histone deacetylase 2 = Histone deacetylase 2 (Homo sapiens, UniProt Q92769)
Histone deacetylase 2, sequence (Q92769 whole entry): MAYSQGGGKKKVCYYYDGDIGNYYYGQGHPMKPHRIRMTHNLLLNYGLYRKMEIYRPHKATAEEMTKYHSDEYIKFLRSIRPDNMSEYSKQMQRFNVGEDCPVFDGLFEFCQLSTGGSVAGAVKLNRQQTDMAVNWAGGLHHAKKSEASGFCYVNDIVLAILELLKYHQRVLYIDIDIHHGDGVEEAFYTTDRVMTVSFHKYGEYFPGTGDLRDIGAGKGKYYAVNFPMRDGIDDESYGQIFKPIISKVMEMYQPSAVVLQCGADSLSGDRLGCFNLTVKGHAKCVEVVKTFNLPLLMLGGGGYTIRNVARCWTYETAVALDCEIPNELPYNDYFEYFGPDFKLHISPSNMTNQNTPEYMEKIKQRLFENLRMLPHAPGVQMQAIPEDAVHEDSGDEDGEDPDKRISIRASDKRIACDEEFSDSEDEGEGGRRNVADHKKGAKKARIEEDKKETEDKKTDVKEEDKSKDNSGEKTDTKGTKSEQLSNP

[8] = Volume of distribution at steady state in mouse at 10 mg/kg, iv; assay type: ADME, organism-based; set-up: dose 10 mg/kg, route intravenous; conditions: in vivo, read-out: Vdss
Histone deacetylase 1 [9] = target: T1, Histone deacetylase 1
Ramos = test: Antiproliferative activity against human Ramos cells; assay type: functional, cell-based
[10] = Clearance in mouse at 10 mg/kg, iv; assay type: ADME, organism-based; set-up: dose 10 mg/kg, route intravenous; conditions: in vivo
Histone deacetylase 5 = Histone deacetylase 5 (Homo sapiens, UniProt Q9UQL6); test: Inhibition of HDAC5
Histone deacetylase 5, sequence (Q9UQL6 whole entry): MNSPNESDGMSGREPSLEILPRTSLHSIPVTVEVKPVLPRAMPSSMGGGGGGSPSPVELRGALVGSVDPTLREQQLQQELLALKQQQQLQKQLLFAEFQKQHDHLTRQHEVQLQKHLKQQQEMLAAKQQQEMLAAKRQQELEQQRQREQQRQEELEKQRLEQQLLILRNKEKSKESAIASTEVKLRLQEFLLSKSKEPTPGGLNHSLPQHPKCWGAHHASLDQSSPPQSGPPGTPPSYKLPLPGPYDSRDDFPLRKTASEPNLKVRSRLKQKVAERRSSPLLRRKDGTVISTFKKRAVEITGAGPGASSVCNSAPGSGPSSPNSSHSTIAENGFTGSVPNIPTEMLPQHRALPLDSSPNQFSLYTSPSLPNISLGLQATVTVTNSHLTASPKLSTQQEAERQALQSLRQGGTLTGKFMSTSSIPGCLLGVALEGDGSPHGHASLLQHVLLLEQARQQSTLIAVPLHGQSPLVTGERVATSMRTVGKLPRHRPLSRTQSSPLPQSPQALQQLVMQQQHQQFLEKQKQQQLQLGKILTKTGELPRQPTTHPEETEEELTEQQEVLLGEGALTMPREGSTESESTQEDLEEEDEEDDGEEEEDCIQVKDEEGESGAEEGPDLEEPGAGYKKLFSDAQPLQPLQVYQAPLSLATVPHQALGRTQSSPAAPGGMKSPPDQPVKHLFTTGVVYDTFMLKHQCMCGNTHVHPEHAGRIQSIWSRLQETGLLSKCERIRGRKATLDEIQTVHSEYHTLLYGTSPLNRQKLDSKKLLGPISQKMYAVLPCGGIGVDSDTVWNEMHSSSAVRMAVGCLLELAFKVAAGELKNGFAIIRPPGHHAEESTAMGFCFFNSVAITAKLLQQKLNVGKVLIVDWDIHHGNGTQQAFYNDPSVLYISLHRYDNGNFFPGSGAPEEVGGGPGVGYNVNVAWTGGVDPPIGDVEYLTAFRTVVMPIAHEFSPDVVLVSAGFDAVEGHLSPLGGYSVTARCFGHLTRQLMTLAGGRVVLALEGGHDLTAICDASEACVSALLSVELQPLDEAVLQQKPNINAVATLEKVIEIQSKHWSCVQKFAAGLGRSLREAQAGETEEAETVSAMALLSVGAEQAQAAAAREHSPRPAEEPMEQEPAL

[11] = target: T3, Polyamine deacetylase HDAC10 (Homo sapiens, UniProt Q969S8); test: Inhibition of HDAC10
T3 sequence (Q969S8 whole entry): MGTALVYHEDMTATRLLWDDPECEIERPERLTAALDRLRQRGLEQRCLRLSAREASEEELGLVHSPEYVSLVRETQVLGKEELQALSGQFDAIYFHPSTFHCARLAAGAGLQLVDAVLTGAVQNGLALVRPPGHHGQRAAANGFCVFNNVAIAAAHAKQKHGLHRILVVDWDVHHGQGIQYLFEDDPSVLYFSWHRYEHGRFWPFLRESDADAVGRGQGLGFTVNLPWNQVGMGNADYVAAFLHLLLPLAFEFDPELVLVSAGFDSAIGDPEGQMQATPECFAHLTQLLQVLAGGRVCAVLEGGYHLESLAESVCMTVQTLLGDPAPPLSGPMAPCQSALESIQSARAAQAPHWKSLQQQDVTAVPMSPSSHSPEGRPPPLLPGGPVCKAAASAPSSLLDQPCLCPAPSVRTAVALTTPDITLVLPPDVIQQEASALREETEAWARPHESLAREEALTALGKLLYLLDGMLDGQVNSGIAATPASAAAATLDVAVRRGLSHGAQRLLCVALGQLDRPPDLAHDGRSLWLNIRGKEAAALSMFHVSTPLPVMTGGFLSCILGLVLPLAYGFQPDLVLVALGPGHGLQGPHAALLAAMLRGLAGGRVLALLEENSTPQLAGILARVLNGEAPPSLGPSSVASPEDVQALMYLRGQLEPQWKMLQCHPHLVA

Histone deacetylase 11 = target: T4, Histone deacetylase 11 (Homo sapiens, UniProt Q96DB2); test: Inhibition of HDAC11
T4 sequence (Q96DB2 whole entry): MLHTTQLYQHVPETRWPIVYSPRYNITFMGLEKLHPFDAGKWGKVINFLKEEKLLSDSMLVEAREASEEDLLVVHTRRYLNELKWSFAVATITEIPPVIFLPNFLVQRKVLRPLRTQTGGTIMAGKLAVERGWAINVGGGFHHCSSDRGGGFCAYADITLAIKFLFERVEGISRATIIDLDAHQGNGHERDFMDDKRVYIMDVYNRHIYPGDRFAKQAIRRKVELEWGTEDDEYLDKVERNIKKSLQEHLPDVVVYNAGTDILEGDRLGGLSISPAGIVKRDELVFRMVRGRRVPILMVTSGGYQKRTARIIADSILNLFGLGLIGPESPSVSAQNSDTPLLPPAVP

[12] = Thermodynamic solubility at pH 7.4; assay type: physicochemical; conditions: buffer, read-out: Therm_solubility
Histone deacetylase 3 = Histone deacetylase 3 (Homo sapiens, UniProt O15379); test: Inhibition of HDAC3
Histone deacetylase 3, sequence (O15379 whole entry): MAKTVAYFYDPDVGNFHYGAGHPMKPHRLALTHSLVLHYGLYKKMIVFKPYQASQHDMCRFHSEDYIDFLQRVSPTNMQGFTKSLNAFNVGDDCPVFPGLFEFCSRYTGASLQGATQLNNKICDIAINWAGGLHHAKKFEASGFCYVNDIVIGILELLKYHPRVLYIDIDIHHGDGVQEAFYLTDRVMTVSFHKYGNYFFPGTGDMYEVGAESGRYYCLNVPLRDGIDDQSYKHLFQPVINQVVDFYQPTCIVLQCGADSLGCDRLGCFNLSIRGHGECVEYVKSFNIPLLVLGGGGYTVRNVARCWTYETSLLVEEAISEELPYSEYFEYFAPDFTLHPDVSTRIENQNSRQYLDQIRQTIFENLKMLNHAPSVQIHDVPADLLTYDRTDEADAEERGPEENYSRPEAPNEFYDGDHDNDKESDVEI

Histone deacetylase 9 = Histone deacetylase 9 (Homo sapiens, UniProt Q9UKV0); test: Inhibition of HDAC9
Histone deacetylase 9, sequence (Q9UKV0 whole entry): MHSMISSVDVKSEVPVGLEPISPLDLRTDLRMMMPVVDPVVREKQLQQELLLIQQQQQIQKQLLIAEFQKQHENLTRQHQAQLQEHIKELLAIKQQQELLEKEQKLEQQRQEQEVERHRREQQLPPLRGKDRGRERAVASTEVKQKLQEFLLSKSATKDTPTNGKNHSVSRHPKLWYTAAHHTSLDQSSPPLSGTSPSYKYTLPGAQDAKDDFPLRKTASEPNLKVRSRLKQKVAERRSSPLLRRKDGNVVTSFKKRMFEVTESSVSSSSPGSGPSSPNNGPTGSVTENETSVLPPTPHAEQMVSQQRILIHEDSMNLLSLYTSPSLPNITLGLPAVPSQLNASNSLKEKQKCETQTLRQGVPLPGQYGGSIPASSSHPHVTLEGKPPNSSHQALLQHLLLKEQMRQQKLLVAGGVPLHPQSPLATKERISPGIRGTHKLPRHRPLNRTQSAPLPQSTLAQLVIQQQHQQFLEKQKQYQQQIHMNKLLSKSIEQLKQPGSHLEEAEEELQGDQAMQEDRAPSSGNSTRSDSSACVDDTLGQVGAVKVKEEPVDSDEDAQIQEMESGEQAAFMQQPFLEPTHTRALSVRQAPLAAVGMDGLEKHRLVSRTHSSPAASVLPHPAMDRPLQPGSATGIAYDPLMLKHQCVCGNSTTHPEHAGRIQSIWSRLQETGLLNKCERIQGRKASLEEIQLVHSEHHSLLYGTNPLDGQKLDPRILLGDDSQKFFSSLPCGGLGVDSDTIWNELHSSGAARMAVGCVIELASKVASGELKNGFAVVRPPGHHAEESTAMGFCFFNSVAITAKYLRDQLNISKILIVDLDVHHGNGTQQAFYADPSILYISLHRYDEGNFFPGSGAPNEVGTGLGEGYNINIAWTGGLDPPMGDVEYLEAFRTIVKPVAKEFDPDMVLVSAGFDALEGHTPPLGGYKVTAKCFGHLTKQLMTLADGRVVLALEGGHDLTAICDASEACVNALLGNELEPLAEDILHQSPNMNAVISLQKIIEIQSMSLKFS

PC-3 = test: Antiproliferative activity against human PC3 cells; assay type: functional, cell-based

Structure (SMILES): O=C(CCCCCNC(=O)NC(=O)c1ccccc1)NO
- solubility [1]: 177 µM (≈ 51.9 µg/mL)
- half-life [2]: > 0.5 h
- inhibition in vivo at 100 mg/kg (HCT-116 [3]): 80%
- Cmax [4]: 22.4 µM
- Activity (Histone deacetylase 1 [5]): Active
- IC50 (Histone deacetylase 8): 608 nM
- Ki (Histone deacetylase 8): 252 nM
- IC50 (HCT-116 [6]): 1580 nM
- half-life [7]: 1.54 h
- Ki (Histone deacetylase 2): 44 nM
- Vd [8]: 2.16 L/kg
- IC50 (Histone deacetylase 1 [9]): 2210 nM
- IC50 (Ramos): 460 nM
- clearance [10]: 83.8 mL/min/kg
- Ki (Histone deacetylase 5): 46 nM
- Ki [11]: 40 nM
- Ki (Histone deacetylase 11): 39 nM
- solubility thermodynamic [12]: 526 µg/mL (≈ 1790 µM)
- Ki (Histone deacetylase 3): 23 nM
- Ki (Histone deacetylase 9): 55 nM
- IC50 (PC-3): 740 nM
